Test results published in publication PMC12866823, “The Pivotal Role of GR‐CAR Pathway in Fetal Programming of Hepatic Cytochrome P450 3A Alteration in Adulthood” (Advanced Science, 2025).

Tests used:
[1] = tested on: bone marrow mesenchymal stem cells hepatoid differentiated cell (BHDC); test: Treatment of BHDC: mRNA, protein, ChIP-PCR and CoIP readouts; format: cell-based, rat; settings: for interaction between GR and P300/CBP (co-immunoprecipitation): 500 x 10^-9 M DEX or 1200 x 10^-9 M CORT; for gene and protein expression of P300/CBP, binding of GR-P300/CBP to CAR promoter, acetylation levels of H3K9 and H3K27: dose-dependent
Protocol: Protocols for preparing BMSCs and the hepatoid‐differentiated cells (BHDCs) were based on our prior study.^[ [98] ^] BMSCs were harvested from PW3 male rats and cultured at a density of 4 × 10^5 cells per well in six‐well plates with growth medium (αMEM with 10% fetal bovine serum (FBS), […] streptomycin, and 100 U mL^−1 penicillin).
All primers are listed in Table S2 (Supporting Information).
Results were quantified using Image J Launcher.
Cells were cross‐linked with 1% formaldehyde at room temperature, and glycine (final concentration 125 × 10^−3 M) was added to terminate the reaction.^[ [105] ^] The suspensions were sonicated to obtain 200‐800 bp DNA fragments, and then were incubated with Agarose‐protein A/G beads and divided into multiple portions. Corresponding antibodies (H3K9ac, H3K14ac, H3K27ac, H3K4me2, H3K27me3, GR, and CAR) and IgG were added and shaken overnight at 4 °C for immunoprecipitation, followed by the addition of 200 µg mL^−1 proteinase K at 65 °C overnight. DNA was isolated from each immunoprecipitation and subjected to RT‐qPCR analysis. The Jaspar database was consulted to query gene transcription binding sites.^[ [107] ^] Primers for amplification of multiple regions of the CAR promoter were designed using the UCSC Genome Browser (http://genome.ucsc.edu/) and Primer 3 Input Browser (http://primer3.ut.ee/). The primer sequences are listed in Table S4 (Supporting Information). Data from RT‐qPCR were used to calculate the abundance of proteins enriched in the promoters of each gene using the following formula: IP/input = 100 × 2^Ct input DNA – Ct IP DNA.
Tissue and cell lysates were collected, and protein concentrations were quantified using a BCA protein quantification kit. Protein A agarose gel beads (20 to 40 µL) were washed 2 to 3 times with lysis buffer and centrifuged at 3000 rpm for 5 min each time. Between 500 and 1000 µL of homogenized lysis supernatant from tissues or cells were transferred to a clean EP tube, and 1–10 µL of specific primary antibody was added to incubate overnight at 4 °C. IgG from the same species served as a negative control. Subsequently, 20 µL of A/G agarose gel beads were added, and the mixture was incubated for 3‐4 h at 4 °C. After incubation, the sample was centrifuged at 1000 g for 5 min at 4 °C to collect the immunoprecipitated complexes; the mixture was then washed 3‐4 times with 1 mL ice‐cold IP lysate (without protease inhibitor) by centrifugation at 3000 g for 5 min. Following the final wash, 40 µL of 1 × SDS loading buffer containing mercaptoethanol was added, boiled for 10 min at 100 °C, centrifuged at 1000 g for 5 min at 4 °C, and 15–20 µL of supernatant was used for WB assay.

GR = test: Dual-luciferase assay of transcriptional function of GR on CAR; format: cell-based, human; settings: with DEX treatment
Protocol: The dual‐luciferase reporter plasmid of pTol2‐cmv‐Fluc‐bGH polyA‐EF1α‐Rluc‐polyA was synthesized by Tsingke company and worked as a positive control. Overlapping PCR was performed to generate insert of the target gene promoter base on HepG2 genomic DNA template. Employing Hifi assembly kit, promoter fragments were inserted into SpeI/NtoI site of reporter vector, and coding sequences were inserted into XbaI/XhoI site of pTol2‐EGFP‐polyA plasmid. 48 h after transfection, cells were collected for dual‐luciferase assay according to Promega luciferase kit instructions. The primers for overlap PCR are listed in Table S5 (Supporting Information).

[2] = tested on: rat fetal primary hepatocytes; test: Treatment of rat fetal primary hepatocytes: mRNA and protein expression; format: cell-based; settings: DEX 20-500 x 10^-9 M or CORT 300-1200 x 10^-9 M, concentration-dependent
Protocol: (§1) Cells and liver samples were subjected to RNA isolation using a TRIZOL reagent. Process of RNA extraction and cDNA preparation was according to our prior work.^[ [103] ^] qPCR was performed using the Cham Q TM Universal SYBR® qPCR Master Mix on the QuantStudio®5 Real‐Time PCR System (Thermo Scientific, Waltham, MA, USA) for detection. All primers are listed in Table S2 (Supporting Information). Target gene expression was standardized using housekeeping gene and computed using the 2^−ΔΔCt methodology. For the gene expression levels assayed in each tissue of fetal mice, n indicates a litter (with each n ranging from 11‐12).
(§2) Total protein was extracted from the liver and cells using RIPA lysis buffer, and protein concentration was determined using a bicinchoninic acid (BCA) assay. Nuclear proteins were extracted using the Nuclear Protein Extraction Kit (no. P0028, Beyotime Institute of Biotechnology, Shanghai, China).^[ [104] ^] To verify the purity of extracted cellular fractions, we examined the levels of cytoplasmic localization proteins (ACTB and GAPDH) and nuclear localization protein (H3) in cytoplasmic and nuclear samples, respectively. […] Details of the western blot procedure have been described previously.^[ [105] ^] […] Results were quantified using Image J Launcher.

HepG2 = test: Treatment of HepG2 with hydrocortisone; format: cell-based, human
Protocol: as §1
as §2, with “Launcher. […]” for “Launcher.”

LS174T = test: Treatment of LS174T with hydrocortisone; format: cell-based, human
Protocol: as §1
as §2, with “Launcher. […]” for “Launcher.”

[3] = 500 x 10^-9 M DEX with 10 x 10^-6 M RU486 or 100 x 10^-9 M GR siRNA
[4] = DEX 20-500 x 10^-9 M or CORT 300-1200 x 10^-9 M
[5] = 0, 300, 600, 1200 nM, concentration-dependent

## CC#C[C@]1(O)CC[C@H]2[C@@H]3CCC4=CC(=O)CCC4=C3[C@@H](c3ccc(N(C)C)cc3)C[C@@]21C [RU486, mifepristone]
[1]; 10 x 10^-6 M with 500 x 10^-9 M DEX
  effect on GR protein nuclear translocation and CYPs expression induced by DEX: significantly inhibited protein nuclear translocation of GR and expression of CYPs induced by DEX treatment
[1]; [3]
  effect on CAR induction by DEX: suppressed
  effect on DEX induction of P300/CBP expression, P300/CBP binding to CAR promoter and H3K9/H3K27 acetylation: reversed the induction of P300/CBP expression, the binding of P300/CBP to the CAR promoter, and the acetylation levels of H3K9 and H3K27 by DEX
GR
  effect on transcriptional activity of GR (on CAR) induced by DEX: blocked transcriptional activity of GR induced by DEX

## C=C1[C@@H](O)[C@@H]2O[C@]3(CC[C@H](/C=C/[C@@H](C)[C@@H]4CC(C)=C[C@@]5(O[C@H](C[C@@](C)(O)C(=O)O)CC[C@H]5O)O4)O3)CC[C@H]2O[C@@H]1[C@@H](O)C[C@H](C)[C@H]1O[C@@]2(CCCCO2)CC[C@H]1C [OA, okadaic acid]
[1]; 10 x 10^-9 M OA with DEX
  effect on DEX-enhanced total and nuclear protein levels of CAR: reversed
[1]; 10 x 10^-9 M OA with or without DEX
  expression of downstream CYP3A and CYP2B: significantly reduced the expression of downstream CYP3A and CYP2B with or without DEX incubation

## C[C@]12C[C@H](O)[C@H]3[C@@H](CCC4=CC(=O)CC[C@@]43C)[C@@H]1CC[C@@H]2C(=O)CO [CORT, corticosterone]
[1]
  interaction between GR and P300/CBP (co-immunoprecipitation): significantly enhanced
[1]; DEX 20-500 x 10^-9 M or CORT 300-1200 x 10^-9 M, 24 h, concentration-dependent
  CYP3A and CYP2B expression, gene and protein levels: significantly induced CYP3A and CYP2B expression at both the gene and protein levels
[1]; [4]
  gene and protein expression of P300/CBP, binding of GR-P300/CBP to CAR promoter, acetylation levels of H3K9 and H3K27: significantly induced
[2]
  CYP3A and CYP2B expression, gene and protein levels: significantly induced CYP3A and CYP2B expression at both the gene and protein levels

## C[C@]12CCC(=O)C=C1CC[C@@H]1[C@@H]2[C@@H](O)C[C@@]2(C)[C@H]1CC[C@]2(O)C(=O)CO [hydrocortisone]
HepG2; [5]
  expression of downstream genes: could significantly induce the expression of downstream genes
HepG2; 1200 x 10^-9 M
  related indicators and nuclear translocation of GR and CAR: significantly increased
LS174T; [5]
  expression of downstream genes: could significantly induce the expression of downstream genes
LS174T; 1200 x 10^-9 M
  related indicators and nuclear translocation of GR and CAR: significantly increased

## C[C@@H]1C[C@H]2[C@@H]3CCC4=CC(=O)C=C[C@]4(C)[C@@]3(F)[C@@H](O)C[C@]2(C)[C@@]1(O)C(=O)CO [DEX, dexamethasone]
[1]
  interaction between GR and P300/CBP (co-immunoprecipitation): significantly enhanced
[1]; [4]
  gene and protein expression of P300/CBP, binding of GR-P300/CBP to CAR promoter, acetylation levels of H3K9 and H3K27: significantly induced
